{
  "source": "patent US20180168149A1",
  "about": "“INSECTICIDAL COMPOSITIONS” (HOMS, LLC, priority 2015, published 2018)",
  "origin": "cited, not measured here",
  "tested_on": "male rats",
  "data": [
    {"smiles": "C=C(C)[C@H]1CC=C(C)CC1", "note": "[d-limonene]", "values": [
      {"measurement": "tumors on chronic exposure", "value": "significant incidence of renal tubular tumors"}
    ]}
  ]
}
